Data from patent US11274106B2, “Topoisomerase inhibitors with antibacterial and anticancer activity” (THE BOARD OF TRUSTEES OF THE UNIVERSITY OF ILLINOIS, priority 2017, dated 2022).
≈ marks a conversion by molar mass, not a printed value. Entries after “also recorded” stand apart in the source; their conditions may differ.

Legend:
E. coli = experiment: Antibacterial MIC, microbroth dilution, E. coli; assay type: cell-based; details: Escherichia coli
Procedure: (§1) To investigate this possibility, the antibacterial effects of the DNM derivatives was assessed against strains of E. coli, S. aureus, and MRSA using the microbroth dilution method (Table 2).

S. aureus = experiment: Antibacterial MIC, microbroth dilution, S. aureus; assay type: cell-based; details: Staphylococcus aureus
Procedure: as §1

[1] = tested on: MDA-MB-231 triple negative breast cancer cells; experiment: Antiproliferative SRB assay, MDA-MB-231; assay type: cell-based; details: SRB assay; for IC50: Homo sapiens, MDA-MB-231, 72 h, 72 hour compound exposure, mean ± SEM, read-out: MDA-MB-231 IC50
Procedure: FIG. 1. […] Cell death measured by SRB assay after 72 hour of compound exposure (n≥3 biological replicates, error bars show SEM). IC50 values given as mean±SEM from ≥3 biological replicates.
To investigate the feasibility of developing a class of antitumor antibiotics based upon the DNM scaffold, the ability of the DNM to exert an antiproliferative effect against MDA-MB-231 breast cancer cells was evaluated.

MRSA = experiment: Antibacterial MIC, microbroth dilution, MRSA; assay type: cell-based, S. aureus; details: for MIC: Staphylococcus aureus, MRSA, microbroth dilution
Procedure: as §1

SMILES | MIC (E. coli) | MIC (S. aureus) | IC50 [1] | MIC (MRSA) | Antiproliferative effect against MDA-MB-231 cells ([1]; FIG. 1, 72 hour, listed as 6DNM) | Activity against MRSA (MRSA)
CCOC(=O)C1Oc2c3c(cc4c(C)cc(=O)n1c24)c(C)cc(=O)n3C (centres unmarked) [Compound 3] | > 16 µg/mL | > 16 µg/mL | > 10000 nM | 0.5 µg/mL (≈ 1.41 µM) |  | remains effective against MRSA
Cc1cc(=O)n(C)c2c3c4c(cc12)c(C)cc(=O)n4C(C(N)=O)O3 (centres unmarked) [Compound 4] | > 16 µg/mL | > 16 µg/mL | 8300 ± 700 nM | 4 µg/mL (≈ 12.3 µM) |  | 
Cc1cc(=O)n(C)c2c3c4c(cc12)c(C)cc(=O)n4C(C(=O)O)O3 (centres unmarked) [Compound 5] | > 32 µg/mL | > 32 µg/mL | 3600 ± 600 nM | 2 µg/mL (≈ 6.13 µM) |  | 
Cc1cc(=O)n(C)c2c3c4c(cc12)c(C)cc(=O)n4C(CC(=O)O)CO3 (centres unmarked) [Compound 6] | > 32 µg/mL | > 16 µg/mL | > 10000 nM | 16 µg/mL (≈ 45.2 µM) |  | 
Cc1cc(=O)n(C)c2c3c4c(cc12)c(C)cc(=O)n4C(CO)CO3 (centres unmarked) [Compound 7] | > 16 µg/mL | 16 µg/mL (≈ 49 µM) | > 10000 nM | 0.25 µg/mL (≈ 0.766 µM) |  | remains effective against MRSA
CC(=O)NCC1COc2c3c(cc4c(C)cc(=O)n1c24)c(C)cc(=O)n3C (centres unmarked) [Compound 8] | > 16 µg/mL | 32 µg/mL (≈ 87.1 µM) | > 10000 nM | 0.5 µg/mL (≈ 1.36 µM) |  | 
Cc1cc(=O)[nH]c2c3c4c(cc12)c(C)cc(=O)n4CCO3 [Compound 10] | > 32 µg/mL | 4 µg/mL (≈ 14.2 µM) | 1600 ± 200 nM |  |  | 

Second part, led by results:

MIC (E. coli) | MIC (S. aureus) | IC50 [1] | MIC (MRSA) | SMILES | Antiproliferative effect against MDA-MB-231 cells ([1]; FIG. 1, 72 hour, listed as 6DNM) | Activity against MRSA (MRSA)
> 16 µg/mL | 2 µg/mL (≈ 7.08 µM) | 1100 ± 200 nM | 0.03 µg/mL (≈ 0.106 µM) | Cc1cc(=O)n(C)c2c3c4c(cc12)c(C)cc(=O)n4CO3 [Compound 1] |  | 
> 16 µg/mL | 1 µg/mL (≈ 3.37 µM) | 730 ± 90 nM | 0.06 µg/mL (≈ 0.202 µM) | Cc1cc(=O)n(C)c2c3c4c(cc12)c(C)cc(=O)n4CCO3 [Compound 2] | produces quantitative cell death; also recorded: equipotent to the clinical trial compound vosoraxin | 
2 µg/mL (≈ 6.42 µM) | 4 µg/mL (≈ 12.8 µM) | 860 ± 70 nM |  | Cc1cc(=O)[nH]c2c3c4c(cc12)c(C)cc(=O)n4C(CN)CO3 (centres unmarked) [Compound 11] |  | 
4 µg/mL (≈ 12.3 µM) | 4 µg/mL (≈ 12.3 µM) | 220 ± 60 nM |  | Cc1cc(=O)n(CCN)c2c3c4c(cc12)c(C)cc(=O)n4CCO3 [Compound 12] |  | 
